Measured values published in publication PMC5901969 (Pharmaceutical research, 2017).
Where two headings read alike, the source gives them in different places. Each block holds one compound with its values, some of them ahead of it.

Experiments:
HIV = format: cell-based; details: U1 cells, 24 h, p24
CYP3A4 [1] = biological target: T1, CYP3A4 (Homo sapiens, UniProt P08684); details: read-out: apparent Km; ethanol as CYP3A4 substrate; cited from earlier work
[2] = oral 100 mg QD; cited from earlier work
[3] = test system: HIV-infected (U1) cell line; assay: Intracellular DRV concentration-time profile in HIV-infected monocytic; format: in vitro ADME; details: U1 cells
monocytes = details: absence of cobicistat; cited from earlier work
CYP3A4 [4] = biological target: T1, CYP3A4; details: cited from earlier work
[5] = 10 mM and 50 mM ethanol (data not shown)

T1 sequence (P08684 whole entry): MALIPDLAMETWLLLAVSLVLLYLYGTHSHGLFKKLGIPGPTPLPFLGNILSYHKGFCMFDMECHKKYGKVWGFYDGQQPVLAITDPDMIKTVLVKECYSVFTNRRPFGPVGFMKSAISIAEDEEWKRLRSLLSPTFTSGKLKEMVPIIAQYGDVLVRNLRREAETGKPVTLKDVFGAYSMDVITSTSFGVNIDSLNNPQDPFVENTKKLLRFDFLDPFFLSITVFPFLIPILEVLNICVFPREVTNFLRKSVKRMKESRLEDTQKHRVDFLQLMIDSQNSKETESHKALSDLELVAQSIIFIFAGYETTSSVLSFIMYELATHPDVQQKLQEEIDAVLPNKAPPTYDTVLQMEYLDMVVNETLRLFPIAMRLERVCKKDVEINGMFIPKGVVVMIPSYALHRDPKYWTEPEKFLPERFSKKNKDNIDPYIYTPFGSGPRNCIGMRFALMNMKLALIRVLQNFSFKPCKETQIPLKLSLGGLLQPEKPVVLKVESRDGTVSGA

Structure (SMILES): CCO [Ethanol]
increase in HIV replication compared to control (HIV; 10 mM ethanol alone): 89%
increase in HIV replication compared to control (HIV; 20 mM ethanol alone): 20.6%
increase in HIV replication compared to control (HIV; 50 mM ethanol alone): 41%
Km (CYP3A4 [1]): 10 mM

Structure (SMILES): CC(C)c1nc(CN(C)C(=O)N[C@H](C(=O)N[C@@H](Cc2ccccc2)C[C@H](O)[C@H](Cc2ccccc2)NC(=O)OCc2cncs2)C(C)C)cs1 [RTV, Ritonavir]
Cmax [2]: 1000 ng/mL

decrease in intracellular AUCtot of DRV ([3]; 3 μg/ml DRV, 20 mM ethanol, compared to DRV alone): 11%
intracellular DRV AUCtot, effect of ethanol [3, 5]: no significant change
intracellular DRV Cmax, effect of ethanol [3, 5]: no significant change
intracellular Cmax of DRV, effect of ethanol ([3]; 20 mM ethanol): without altering
Structure (SMILES): CC(C)CN(C[C@@H](O)[C@H](Cc1ccccc1)NC(=O)O[C@H]1CO[C@H]2OCC[C@H]21)S(=O)(=O)c1ccc(N)cc1 [DRV, Darunavir]

Structure (SMILES): COc1cc2c(cc1Cc1cccc(Cl)c1F)c(=O)c(C(=O)O)cn2[C@H](CO)C(C)C [EVG, Elvitegravir]
intracellular AUCtot, effect of ethanol exposure (monocytes): decreases
intracellular Cmax, effect of ethanol exposure (monocytes): decreases

Structure (SMILES): Cc1c(O)cccc1C(=O)N[C@@H](CSc1ccccc1)[C@H](O)CN1C[C@H]2CCCC[C@H]2C[C@H]1C(=O)NC(C)(C)C [nelfinavir]
decrease in IC50 in response to ethanol exposure (CYP3A4 [4]): 3 fold
